“And” between values parts separate entries of the source, which are not always exact repeats. Identical values can stand only once. Inconclusive results and toxic doses are left out. The calls were made as follows: active = survival T/C of 150% or more; inactive = T/C below 125% in these data.
Tested on: P388 leukemia ip, CD2F1 mice, survival T/C
Assay: NCI In Vivo Anticancer Drug Screen. Data for tumor model P388 Leukemia (intraperitoneal) in CD2F1 (CDF1) mice
Conditions: endpoint: median survival time, higher = longer survival
Summary of the method: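 Mice carrying the transplanted tumor received test compound or vehicle. Survival was recorded in each group, and the value is the treated-group measurement divided by that of the vehicle-treated control group.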

[1] = dose: 25.0 mg/kg/injection, schedule: Q04DX003 (ip), vehicle: saline with Tween-80
[2] = dose: 50.0 mg/kg/injection, schedule: Q04DX003 (ip), vehicle: saline with Tween-80
[3] = dose: 200.0 mg/kg/injection, schedule: Q04DX003 (ip), vehicle: saline with Tween-80
[4] = dose: 60.0 mg/kg/injection, schedule: Q01DX005 (ip), vehicle: saline with Tween-80
[5] = dose: 120.0 mg/kg/injection, schedule: Q01DX005 (ip), vehicle: saline with Tween-80
[6] = dose: 240.0 mg/kg/injection, schedule: Q01DX005 (ip), vehicle: saline with Tween-80
[7] = dose: 100.0 mg/kg/injection, schedule: Q01DX009 (ip), vehicle: saline with Tween-80
[8] = dose: 50.0 mg/kg/injection, schedule: Q01DX009 (ip), vehicle: Klucel (hydroxypropylcellulose) (HPC)
[9] = dose: 100.0 mg/kg/injection, schedule: Q01DX009 (ip), vehicle: Klucel (hydroxypropylcellulose) (HPC)
[10] = dose: 100.0 mg/kg/injection, schedule: Q04DX003 (ip), vehicle: Klucel (hydroxypropylcellulose) (HPC)
[11] = dose: 200.0 mg/kg/injection, schedule: Q04DX003 (ip), vehicle: Klucel (hydroxypropylcellulose) (HPC)

Measured: T/C

Cc1ccc2nc3ccccc3cc2c1
inactive: [1] 104 % of control | [2] 100 % of control | dose: 100.0 mg/kg/injection, schedule: Q04DX003 (ip), vehicle: saline with Tween-80 95 % of control | [3] 99 % of control

O=[N+]([O-])c1ccc(/C=C/C(CCN2CCCCC2)=N\O)o1
inactive: [4] 104 % of control | [5] 104 % of control | [6] 100 % of control

Cc1c2c(nc3ccccc13)-c1ccccc1C(C)(C)C2O (centres undefined)
inactive: dose: 100.0 mg/kg/injection, schedule: Q01DX001 (ip), vehicle: saline with Tween-80 99 % of control | dose: 200.0 mg/kg/injection, schedule: Q01DX001 (ip), vehicle: saline with Tween-80 106 % of control | dose: 400.0 mg/kg/injection, schedule: Q01DX001 (ip), vehicle: saline with Tween-80 106 % of control

CC(C)Cc1c[nH]c(=O)[nH]c1=O
inactive: [7] 95 % of control | dose: 200.0 mg/kg/injection, schedule: Q01DX009 (ip), vehicle: saline with Tween-80 95 % of control | dose: 400.0 mg/kg/injection, schedule: Q01DX009 (ip), vehicle: saline with Tween-80 91 % of control

O=C(NCc1ccc(Cl)cc1)OCc1c2ccccc2cc2ccccc12
inactive: [8] 95 % of control | [9] 93 % of control

COc1ccc2cc(C(=O)c3cc4ccc(OC)cc4oc3=O)c(=O)oc2c1
inactive: [4] 104 % of control | [5] 101 % of control | [6] 96 % of control

COc1cc2c(cc1OC)-c1c3c(cc4c1[C@H](C2)N(C)CC4)OCO3
inactive: [3] 110 % of control | dose: 400.0 mg/kg/injection, schedule: Q04DX003 (ip), vehicle: saline with Tween-80 110 % of control

O=S(=O)(OCC#CCOS(=O)(=O)c1ccc(Cl)c(Cl)c1)c1ccc(Cl)c(Cl)c1
inactive: dose: 12.5 mg/kg/injection, schedule: Q01DX009 (ip), vehicle: Klucel (hydroxypropylcellulose) (HPC) 95 % of control | dose: 25.0 mg/kg/injection, schedule: Q01DX009 (ip), vehicle: Klucel (hydroxypropylcellulose) (HPC) 92 % of control | [8] 91 % of control | [9] 92 % of control

C=C[C@H](c1ccccc1O)c1cc(OC)c(OC)cc1OC
inactive: dose: 31.75 mg/kg/injection, schedule: Q01DX005 (ip), vehicle: Klucel (hydroxypropylcellulose) (HPC) 104 % of control | dose: 63.5 mg/kg/injection, schedule: Q01DX005 (ip), vehicle: Klucel (hydroxypropylcellulose) (HPC) 103 % of control | dose: 127.0 mg/kg/injection, schedule: Q01DX005 (ip), vehicle: Klucel (hydroxypropylcellulose) (HPC) 106 % of control | dose: 254.0 mg/kg/injection, schedule: Q01DX005 (ip), vehicle: Klucel (hydroxypropylcellulose) (HPC) 102 % of control

O=S=NSc1c(F)c(F)c(F)c(F)c1F
inactive: dose: 50.0 mg/kg/injection, schedule: Q01DX005 (ip), vehicle: saline with Tween-80 104 % of control | dose: 100.0 mg/kg/injection, schedule: Q01DX005 (ip), vehicle: saline with Tween-80 111 % of control

COC(=O)c1nc(N)nc(C(=O)OC)c1C(=O)c1ccc([N+](=O)[O-])cc1
inactive: [4] 105 % of control | [5] 97 % of control

COc1cc2c(cc1OC)C(CC1CCN(C)CC1)NCC2 (centres undefined)
inactive: dose: 50.0 mg/kg/injection, schedule: Q01DX005 (ip), vehicle: saline 106 % of control | dose: 100.0 mg/kg/injection, schedule: Q01DX005 (ip), vehicle: saline 103 % of control | dose: 200.0 mg/kg/injection, schedule: Q01DX005 (ip), vehicle: saline 103 % of control

OC1c2cccn2-c2cc(Cl)ccc2SC1c1ccccc1 (centres undefined)
inactive: [4] 99 % of control | [5] 101 % of control | [6] 100 % of control

O=C1c2ccc([N+](=O)[O-])cc2NC(O)c2cccn21 (centres undefined)
inactive: dose: 0.1 mg/kg/injection, schedule: Q01DX005 (ip), vehicle: water 96 % of control | dose: 0.2 mg/kg/injection, schedule: Q01DX005 (ip), vehicle: water 96 % of control | dose: 0.4 mg/kg/injection, schedule: Q01DX005 (ip), vehicle: water 91 % of control | dose: 0.8 mg/kg/injection, schedule: Q01DX005 (ip), vehicle: water 96 % of control | dose: 1.6 mg/kg/injection, schedule: Q01DX005 (ip), vehicle: water 96 % of control | dose: 5.0 mg/kg/injection, schedule: Q01DX005 (ip), vehicle: distilled water + Tween-80 99 % of control | dose: 10.0 mg/kg/injection, schedule: Q01DX005 (ip), vehicle: distilled water + Tween-80 95 % of control | dose: 20.0 mg/kg/injection, schedule: Q01DX005 (ip), vehicle: distilled water + Tween-80 95 % of control | dose: 40.0 mg/kg/injection, schedule: Q01DX005 (ip), vehicle: distilled water + Tween-80 91 % of control | dose: 80.0 mg/kg/injection, schedule: Q01DX005 (ip), vehicle: distilled water + Tween-80 91 % of control

CCOC(=O)C1(C)OC1c1ccc([N+](=O)[O-])cc1 (centres undefined)
inactive: [10] 97 % of control | [11] 94 % of control | dose: 400.0 mg/kg/injection, schedule: Q04DX003 (ip), vehicle: Klucel (hydroxypropylcellulose) (HPC) 100 % of control

O=C(O)c1ccc(O)c(S)c1
inactive: dose: 100.0 mg/kg/injection, schedule: Q04DX003 (ip), vehicle: alcohol 106 % of control | dose: 200.0 mg/kg/injection, schedule: Q04DX003 (ip), vehicle: alcohol 101 % of control | dose: 400.0 mg/kg/injection, schedule: Q04DX003 (ip), vehicle: alcohol 105 % of control

COc1ccc(C=C2C(=O)C=CC2=O)cc1
inactive: dose: 1.25 mg/kg/injection, schedule: Q04DX002 (ip), vehicle: saline with Tween-80 106 % of control | dose: 2.5 mg/kg/injection, schedule: Q04DX002 (ip), vehicle: saline with Tween-80 97 % of control | dose: 5.0 mg/kg/injection, schedule: Q04DX002 (ip), vehicle: saline with Tween-80 99 % of control

Cc1ccc(Oc2nc(=O)c3c(o2)CC(C)(C)C3)cc1
inactive: dose: 12.5 mg/kg/injection, schedule: Q01DX009 (ip), vehicle: saline with Tween-80 106 % of control | dose: 25.0 mg/kg/injection, schedule: Q01DX009 (ip), vehicle: saline with Tween-80 106 % of control and 112 % of control | dose: 50.0 mg/kg/injection, schedule: Q01DX009 (ip), vehicle: saline with Tween-80 103 % of control and 106 % of control and 114 % of control | [7] 120 % of control and 96 % of control

CC(C)=CCc1cc2c(cc1O)OC[C@H]1c3cc4c(cc3O[C@@H]21)OCO4
inactive: dose: 100.0 mg/kg/injection, schedule: Q01DX001 (ip), vehicle: Klucel (hydroxypropylcellulose) (HPC) 91 % of control | dose: 200.0 mg/kg/injection, schedule: Q01DX001 (ip), vehicle: Klucel (hydroxypropylcellulose) (HPC) 96 % of control | dose: 400.0 mg/kg/injection, schedule: Q01DX001 (ip), vehicle: Klucel (hydroxypropylcellulose) (HPC) 91 % of control

CCOC(=O)c1ccc([O-])c([I+]c2ccccc2)c1
inactive: dose: 50.0 mg/kg/injection, schedule: Q04DX003 (ip), vehicle: Klucel (hydroxypropylcellulose) (HPC) 100 % of control | [10] 100 % of control | [11] 101 % of control

N[C@H](CCOc1ccc(/C(=N/O)C(=O)N[C@H]2CN([C@@H](C(=O)O)c3ccc(O)cc3)C2=O)cc1)C(=O)O
inactive: dose: 50.0 mg/kg/injection, schedule: Q01DX005 (ip), vehicle: water 101 % of control | dose: 100.0 mg/kg/injection, schedule: Q01DX005 (ip), vehicle: water 97 % of control | dose: 200.0 mg/kg/injection, schedule: Q01DX005 (ip), vehicle: water 105 % of control

O=C(C=C(C(F)(F)F)C(F)(F)F)c1ccco1
inactive: dose: 12.5 mg/kg/injection, schedule: Q04DX003 (ip), vehicle: saline with Tween-80 100 % of control | [1] 109 % of control | [2] 95 % of control

O=C(Nc1ccc(NC(=O)Nc2cc(C(F)(F)F)ccc2Oc2ccc(Cl)c(Cl)c2)cc1)Nc1cc(C(F)(F)F)ccc1Oc1ccc(Cl)c(Cl)c1
inactive: dose: 60.0 mg/kg/injection, schedule: Q01DX005 (ip), vehicle: Klucel (hydroxypropylcellulose) (HPC) 91 % of control | dose: 120.0 mg/kg/injection, schedule: Q01DX005 (ip), vehicle: Klucel (hydroxypropylcellulose) (HPC) 98 % of control | dose: 240.0 mg/kg/injection, schedule: Q01DX005 (ip), vehicle: Klucel (hydroxypropylcellulose) (HPC) 94 % of control

COc1ccc(-n2c(-c3ccc(-n4c(C)nc5ccccc5c4=O)cc3)n[nH]c2=S)cc1
inactive: dose: 37.5 mg/kg/injection, schedule: Q01DX005 (ip), vehicle: Klucel (hydroxypropylcellulose) (HPC) 102 % of control | dose: 75.0 mg/kg/injection, schedule: Q01DX005 (ip), vehicle: Klucel (hydroxypropylcellulose) (HPC) 105 % of control | dose: 150.0 mg/kg/injection, schedule: Q01DX005 (ip), vehicle: Klucel (hydroxypropylcellulose) (HPC) 104 % of control
